This is an account of results in patent US20060229276A1, “Use of glycosoaminoglycans for the prevention and treatment of sepsis” (priority 2004, published 2006).

Entries after “also recorded” stand apart in the source; their conditions may differ. Read-outs that look alike come from different tables or passages of the source.

One data set relates to S. aureus strain K2. Description: S. aureus strain K2-induced sepsis in mice (survival, weight, clinical appearance). The note with it: for survival versus PBS control: 20 μg/mouse s.c. The procedure: FIGS. 5A-B show the dose effect of dermatan sulfate on the survival of mice infected with a […] dose S. aureus. S. aureus K2 was grown to log phase and set via a nephelometer to an LD60-80% (30 million cfu per mouse in FIG. 5A; 35 million cfu per mouse in FIG. 5B). Balb/c mice were infected intravenously (0.5 ml) on day zero. Animals were then inoculated subcutaneously with low molecular weight heparin or dermatan sulfate (20 μg/mouse) at two hour and subsequently every twenty-four hours. Control group mice were injected with PBS. Clinical appearance and weight was recorded daily.
FIGS. 6A-B show the dose effect of dermatan sulfate (DS) on mice infected with S. aureus strain K2. S. aureus strain K2 was grown to log phase and set via a nephelometer to a lethal concentration of 40 million cfu per mouse. Balb/c mice were infected intravenously with 40 m cfu's of S. aureus K2. Treatment groups were injected subcutaneously with increasing doses of dermatan sulfate (0.1 to 12.5 mg/kg body weight or 2 to 250 μg of dermatan sulfate) at two hour and subsequently every twenty-four hours. Control group mice were injected subcutaneously with PBS. Clinical appearance and weight were recorded daily. […] In FIG. 6A, n=15 in PBS and n=10 for all doses of dermatan sulfate and in FIG. 6B, n=10 for both the doses of dermatan sulfate.
FIGS. 7A-B show the dose effect of dermatan sulfate (DS) on mice infected with S. aureus strain K2. S. aureus strain K2 was grown to log phase and set via a nephelometer to a lethal concentration of 40 million cfu per mouse. Balb/c mice were infected intravenously with 40 m cfu's of S. aureus K2 on day 0. Treatment groups were injected subcutaneously with increasing doses of dermatan sulfate (0.025 to 25 mg/kg body weight or 0.5 to 500 μg of dermatan sulfate) at two hour and subsequently every twenty-four hours. Control group mice were injected subcutaneously with PBS. Clinical appearance and weight were recorded daily.

Another data set concerns Fibrinogen. Description: Fibrinogen levels in plasma of S. aureus K2-infected mice. The note with it: 50-500 μg/day s.c.; 48 hours after infection. The data set is classed as in vivo, Balb/c mice. On the procedure:
(§1) Control group mice were injected subcutaneously with PBS or dermatan sulfate (50 or 500 μg dermatan sulfate per mouse per day). Mice were bled at 48 hours after infection via tail vein. Blood collected in 0.12 M sodium citrate in a 9:1 ratio of blood to citrate. Samples were centrifuged and plasma collected and frozen at −20° C. until use. Plasmas were diluted 1:9 in Owrens buffer for analysis. Fibrinogen levels were determined utilizing control standards as measured by an XM coagulometer according to manufacturer's instructions.
Plasma samples from S.aureus infected mice were prepared as described in example 7. Fibrinogen levels were determined utilizing control standards using an XM coagulometer according to manufacturer's instructions.

The subject of a further data set is protein C. Description: Protein C levels in plasma of S. aureus K2-infected mice. Conditions: 48 hours. Format: in vivo, Balb/c mice. On the procedure: as §1, with “Balb/c mice were infected intravenously with 40 million cfu's of S. aureus K2 on day zero. […] Control” for “Control”, “Protein C” for “Fibrinogen”, “as percent levels based on” for “determined utilizing control”, “and its ability to prolong partial thromboplastin time. Clotting assay was evaluated using” for “as measured by”
Plasma samples from S.aureus infected mice were prepared as described in Example 7. Protein C in the plasma was determined as percent levels based on standards and their ability to prolong partial thromboplastin time. Clotting assay was evaluated using an XM coagulometer according to manufacturer's instructions.

The subject of data set [1] is intrinsic pathway of coagulation. In words: Partial thromboplastin time in plasma of S. aureus K2-infected mice. Conditions: 48 hours after infection. The data set is classed as in vivo, Balb/c mice. On the procedure:
as §1, with “FIGS. 8A-B show the effect of dermatan sulfate (DS) on the prothrombin time (FIG. 8A) and partial thromboplastin time (FIG. 8B) of mice treated with dermatan sulfate after the onset of S.aureus-induced sepsis. […] Control” for “Control”, “1:3” for “1:9”, “Prothrombin time (PT) and partial thromboplastin time (PTT)” for “Fibrinogen levels”, “utilizing” for “utilizing control standards as measured by”
The effect of dermatan sulfate on the intrinsic pathway of coagulation was determined by measuring the active partial thromboplastin time. Plasma samples from S.aureus infected mice was prepared as described in example 7. Partial thromboplastin time (PTT) was determined utilizing an XM coagulometer according to the manufacturer's instructions.

A short description of data set [2]: Toxicity of high dose dermatan sulfate in non infected control mice. The data set is classed as in vivo. Conditions: 500 μg/day. On the procedure:
A very high dose of approximately 25 mg/kg body weight is detrimental to the infected mice after the onset of sepsis (FIG. 7A). […] But, a high dose of dermatan sulfate was non-toxic to non infected control mice treated with 500 μg/day of dermatan sulfate.

Data set [3] concerns extrinsic pathway of coagulation. Description: Prothrombin time in plasma of S. aureus K2-infected mice. The data set is classed as in vivo, Balb/c mice. The note with it: 48 hours after infection. The procedure: as §1, with “FIGS. 8A-B show the effect of dermatan sulfate (DS) on the prothrombin time (FIG. 8A) and partial thromboplastin time (FIG. 8B) of mice treated with dermatan sulfate after the onset of S.aureus-induced sepsis. […] Control” for “Control”, “1:3” for “1:9”, “Prothrombin time (PT) and partial thromboplastin time (PTT)” for “Fibrinogen levels”, “utilizing” for “utilizing control standards as measured by”
To ascertain the physiological pathway that is modulated by dermatan sulfate, coagulation profiles of mice treated with low and high concentrations of the compound in the context of S. aureus-induced sepsis was assessed. The extrinsic pathway of coagulation was first evaluated by measuring the prothrombin time (PT) in the plasma of mice forty eight hours after infection with S. aureus and treatment with dermatan sulfate. […] Prothrombin time (PT) was determined utilizing an XM coagulometer according to the manufacturer's instructions.

The test system of a further data set is S. aureus strain CYL574. In words: S. aureus strain CYL574-induced septic death in mice (survival). The data set is classed as in vivo, Balb/c mice. On the procedure: Mice in control group were injected intraperitoneally with PBS.
Experiments evaluating the effects of low molecular weight heparin in preventing mortality and/or prolonging survival were conducted in an animal model of S. aureus-induced septic death.

The conditions of data set [4]: in vivo, cited from earlier work.
For the next data set, the system named is S. aureus. Format: in vivo, mice. The note with it: 100 or 50 μg per mouse. The procedure: The therapeutic index of low molecular weight heparin was also evaluated by using several-fold concentrations in excess of the clinical dose (1 mg/kg or 20 μg/mouse). […] These adverse effects included hematuria, subcutaneous hematomas, and bleeding at the site of injection. The majority of the mice that died in the low molecular weight heparin group were documented with at least one episode of bleeding. […] Insight into the actual cause of bleeding can be gained by examining the coagulation profiles.

[5] abbreviates: 30 million cfu K2, FIG. 5A, n=15.
The mark [6] stands for this setting: 35 million cfu K2, FIG. 5B, n=20.
The mark [7] stands for this setting: infected mice treated with 50 or 500 μg per mouse s.c.

Consider chondroitin sulfate A, for which, in the data set on S. aureus strain K2 (s.c., continued daily high doses), the “effect of continued daily high doses in infected mice” value is recorded as “detrimental”. Further, the “survival as compared to infected mice treated with PBS” value with S. aureus strain K2 (s.c., greater than 10 mg/kg body weight or greater than 200 μg per mouse, FIG. 4) was “prolonged survival”. In addition, in the data set on S. aureus strain K2 (s.c., very high doses >100 mg/kg body weight, first days after onset of sepsis), the survival entry is given as “augmented survival”.

In the case of dermatan sulfate, the “fibrinogen levels as compared to infected PBS treated mice” value with Fibrinogen is given as “did not exhibit any significant difference”. The entries for the “survival versus PBS control” value in the data set on S. aureus strain K2 (setting [5]) and in the data set with S. aureus strain K2 (setting [6]) were “substantial survival rate” and “dramatic survival rate”, respectively. The clinical state result with S. aureus strain K2 (500 μg/day s.c., first twenty four to forty eight hours) is reported as “did clinically well”. Moreover, in the data set with S. aureus strain K2 (approximately 25 mg/kg body weight, 500 μg/day s.c., FIG. 7A), the “effect of very high dose on infected mice (survival)” value was “detrimental; also recorded: poor survival”. Also, the “weight of surviving animals” value with S. aureus strain K2 (higher-survival dose versus lower doses, FIG. 6B) is on record as “substantially lost more weight”. Besides, the “protection, high versus lower doses” value in the data set with S. aureus strain K2 (s.c., high doses >1 mg/Kg versus <1 mg/Kg, FIGS. 6A-7B) is reported as “more protective than lower doses”. In addition, in the data set on S. aureus strain K2 (tapering from 16 mg/kg, halved every day to approximately 0.025 mg/Kg on day 13, FIG. 7B), the “survival rates with tapered dose” value is recorded as “optimal survival rates”. Moreover, the “protein C levels” value in the data set with protein C (50 μg/day s.c. (low doses, <10 mg/Kg)) was “decrease protein C levels; also recorded: broad range of protein c levels that were higher and lower”; in the data set on protein C (500 μg/day s.c. (high levels, >20 mg/kg), 20 mg/kg), “increase plasma C levels; also recorded: dramatically increase protein C levels”. In addition, the “partial thromboplastin time as compared to infected PBS treated mice” value in data set [1] (50 μg/day (low dose) s.c.) was “decrease the partial throboplastin time; also recorded: slight decrease”. The “partial thromboplastin time as compared to PBS treated infected mice” value in [1] (500 μg/day s.c.) is on record as “significantly prolonged”. Further, the partial thromboplastin time result in [1] (setting [7]) is reported as “prolonged partial thromboplastin time”. Moreover, the “toxicity in non infected control mice” value in data set [2] is reported as “non-toxic”. Also, the “prothrombin time as compared to infected PBS treated mice” value in data set [3] (500 μg/day (high dose) s.c.) is “increase the prothrombin time; also recorded: significant increase in prothrombin time”. Also, the prothrombin time entry in data set [3] (setting [7]) is listed as “contracted prothrombin times”.

In the case of low molecular weight heparin, the survival rate with S. aureus strain CYL574 (high dose 5 mg/kg i.p., after infection, p=0.0017 versus control) turned out to be 92.8%; with S. aureus strain CYL574 (prophylaxis dose 1 mg/kg i.p., 14 days after infection, PBS control 33.3%) it was 66.7%; in the data set with S. aureus strain K2 (1 mg/kg i.p., 72 hr, supra-lethal dose K2, PBS control 20%) it was 70%; in the data set with S. aureus strain K2 (1 mg/kg i.p., 96 hr, supra-lethal dose K2, PBS control 0%, p=0.01) it was 60%; with S. aureus strain K2 (5 mg/kg i.p., 96 hours after infection, PBS control 0%), 22.2%. Also, the “survival versus PBS control” value in the data set on S. aureus strain K2 (setting [5]) was “higher rate a survival than the control group”; with S. aureus strain K2 (setting [6]), “higher survival rate than the PBS-treated mice”. In the data set on S. aureus strain K2 (s.c., approximately <0.5 mg/kg per day compared with >1 mg/kg per day, FIG. 3), the “survival, low versus high doses” value is recorded as “increased survival”. Also, the plasma half-life in [4] (iv) was 2 to 4 h; in data set [4] (sc) it was 3 to 6 h. Also, in [4], the “plasma half-life relative to unfractionated heparin” value was 2-4 times. The “survival rates as compared to control mice treated with PBS” value with S. aureus (data not shown) is on record as “lower survival rates”. The “adverse effects (bleeding)” value in the data set with S. aureus (high doses, infected mice) is listed as “signs of bleeding after only 48 hr”.
